According to US9969694B2, “N-(arylalkyl)-N′-pyrazolyl-urea, thiourea, guanidine and cyanoguanidine compounds as TrkA kinase inhibitors” (Array BioPharma Inc., priority 2012, dated 2018):
Blank lines part the entries; values can stand above or below the compound they belong to.

Columns and labels:
Test in all cases: Off-Target Kinase Profiling
Assay type in all cases: biochemical
Settings in all cases: 10 μM; ATP near Km
[1] = molecular target: T1, Abl2 (Homo sapiens, UniProt P42684)
T1 construct: purchased Millipore (KinaseProfiler service)
Protocol: (§1) Representative compounds of the invention (Examples 33 and 10) were tested for off-target kinase activity at a concentration of 10 μM by Millipore, Inc. in their KinaseProfiler™ service against all the kinases available in their full kinase panel. Compounds were run in duplicate at a concentration of ATP near the Km for each individual kinase according to Millipore's specifications. The results are shown in Table B. Data are reported as percent of control (POC) and are the average of the two replicates.

[2] = molecular target: T2, CAMK2g (Homo sapiens, UniProt Q13555)
T2 construct: purchased Millipore (KinaseProfiler service)
Protocol: as §1

[3] = molecular target: T3, CDK2/cyclinA (Homo sapiens, UniProt P24941)
T3 construct: purchased Millipore (KinaseProfiler service)
Protocol: as §1

[4] = molecular target: T4, CDK5/p35 (Homo sapiens, UniProt Q00535)
T4 construct: purchased Millipore, Inc. (KinaseProfiler service)
Protocol: as §1

[5] = molecular target: T5, CDK6/cyclinD3 (Homo sapiens, UniProt Q00534)
T5 construct: purchased Millipore, Inc. (KinaseProfiler service)
Protocol: as §1

[6] = system: CK1_y
Protocol: as §1

[7] = molecular target: T6, CLK2 (Homo sapiens, UniProt P49760)
T6 construct: purchased Millipore, Inc. (KinaseProfiler service)
Protocol: as §1

[8] = molecular target: T7, CLK3 (Homo sapiens, UniProt P49761)
T7 construct: purchased Millipore, Inc. (KinaseProfiler service)
Protocol: as §1

[9] = molecular target: T8, DAPK3 (Homo sapiens, UniProt O43293)
T8 construct: purchased Millipore, Inc. (KinaseProfiler service)
Protocol: as §1

[10] = molecular target: T9, DRAK1 (Homo sapiens, UniProt Q9UEE5)
T9 construct: purchased Millipore, Inc. (KinaseProfiler service)
T9 sequence (Q9UEE5 whole entry): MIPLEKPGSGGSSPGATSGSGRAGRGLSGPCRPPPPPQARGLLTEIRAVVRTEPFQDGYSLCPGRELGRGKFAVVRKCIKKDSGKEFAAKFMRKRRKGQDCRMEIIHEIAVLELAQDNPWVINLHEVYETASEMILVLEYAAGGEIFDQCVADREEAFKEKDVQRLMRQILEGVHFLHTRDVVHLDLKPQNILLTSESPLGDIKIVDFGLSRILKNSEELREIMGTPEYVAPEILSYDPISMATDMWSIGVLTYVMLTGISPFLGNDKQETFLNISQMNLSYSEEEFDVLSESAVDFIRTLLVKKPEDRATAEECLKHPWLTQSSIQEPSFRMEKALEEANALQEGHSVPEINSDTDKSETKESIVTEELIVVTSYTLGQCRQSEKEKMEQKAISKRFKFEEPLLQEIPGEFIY
Protocol: as §1

[11] = molecular target: T10, DYRK2 (Homo sapiens, UniProt Q92630)
T10 construct: purchased Millipore, Inc. (KinaseProfiler service)
Protocol: as §1

[12] = molecular target: T11, EphB2 (Homo sapiens, UniProt P29323)
T11 construct: purchased Millipore, Inc. (KinaseProfiler service)
Protocol: as §1

[13] = molecular target: T12, FAK2 (Homo sapiens, UniProt Q14289)
T12 construct: purchased Millipore, Inc. (KinaseProfiler service)
Protocol: as §1

[14] = molecular target: T13, FGFR1 (Homo sapiens, UniProt P11362)
T13 construct: purchased Millipore, Inc. (KinaseProfiler service)
T13 sequence (P11362 22-822): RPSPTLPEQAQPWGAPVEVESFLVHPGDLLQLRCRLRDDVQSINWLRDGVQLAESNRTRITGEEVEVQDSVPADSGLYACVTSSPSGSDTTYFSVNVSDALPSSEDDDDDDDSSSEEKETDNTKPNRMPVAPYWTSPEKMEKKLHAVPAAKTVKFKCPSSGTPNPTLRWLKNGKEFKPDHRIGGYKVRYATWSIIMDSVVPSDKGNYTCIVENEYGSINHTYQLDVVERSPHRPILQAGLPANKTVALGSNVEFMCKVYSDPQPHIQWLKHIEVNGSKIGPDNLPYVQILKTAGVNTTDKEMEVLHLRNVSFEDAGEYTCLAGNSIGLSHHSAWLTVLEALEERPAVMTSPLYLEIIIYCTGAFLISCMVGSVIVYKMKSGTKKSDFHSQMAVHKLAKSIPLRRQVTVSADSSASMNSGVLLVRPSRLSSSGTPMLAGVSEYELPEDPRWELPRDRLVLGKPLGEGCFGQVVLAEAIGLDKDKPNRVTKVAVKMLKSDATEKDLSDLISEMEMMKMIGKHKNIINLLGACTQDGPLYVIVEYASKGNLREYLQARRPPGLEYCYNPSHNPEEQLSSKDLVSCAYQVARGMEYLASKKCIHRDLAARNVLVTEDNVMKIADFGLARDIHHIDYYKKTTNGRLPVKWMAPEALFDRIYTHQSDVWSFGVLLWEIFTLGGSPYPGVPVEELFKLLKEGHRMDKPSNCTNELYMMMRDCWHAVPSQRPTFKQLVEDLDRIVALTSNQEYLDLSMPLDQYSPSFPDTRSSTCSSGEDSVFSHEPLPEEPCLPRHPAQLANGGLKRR
Protocol: as §1

[15] = molecular target: T14, FGFR4 (Homo sapiens, UniProt P22455)
T14 construct: purchased Millipore, Inc. (KinaseProfiler service)
Protocol: as §1

[16] = molecular target: T15, Fes (Homo sapiens, UniProt P07332)
T15 construct: purchased Millipore, Inc. (KinaseProfiler service)
T15 sequence (P07332 whole entry): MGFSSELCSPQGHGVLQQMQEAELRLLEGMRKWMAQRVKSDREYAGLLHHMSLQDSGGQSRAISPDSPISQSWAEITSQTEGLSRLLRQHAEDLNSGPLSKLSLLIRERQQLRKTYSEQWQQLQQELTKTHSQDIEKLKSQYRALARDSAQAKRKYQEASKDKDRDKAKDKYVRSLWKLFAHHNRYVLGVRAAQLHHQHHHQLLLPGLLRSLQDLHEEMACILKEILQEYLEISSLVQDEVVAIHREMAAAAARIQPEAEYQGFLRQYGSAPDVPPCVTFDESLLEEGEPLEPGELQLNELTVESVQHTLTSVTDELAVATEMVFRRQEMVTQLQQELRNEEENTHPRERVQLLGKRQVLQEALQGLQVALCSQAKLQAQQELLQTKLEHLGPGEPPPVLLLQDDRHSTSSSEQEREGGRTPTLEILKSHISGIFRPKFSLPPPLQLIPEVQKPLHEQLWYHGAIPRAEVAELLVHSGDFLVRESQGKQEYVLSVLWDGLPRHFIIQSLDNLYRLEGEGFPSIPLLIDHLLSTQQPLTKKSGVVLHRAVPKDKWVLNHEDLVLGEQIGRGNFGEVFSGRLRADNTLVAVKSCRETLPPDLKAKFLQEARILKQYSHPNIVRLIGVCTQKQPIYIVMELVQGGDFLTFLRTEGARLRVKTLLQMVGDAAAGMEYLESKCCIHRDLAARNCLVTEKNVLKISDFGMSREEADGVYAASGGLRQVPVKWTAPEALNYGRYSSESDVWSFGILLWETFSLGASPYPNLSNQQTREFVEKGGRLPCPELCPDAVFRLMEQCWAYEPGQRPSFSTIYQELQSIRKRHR
Protocol: as §1

[17] = molecular target: T16, Flt3 (Homo sapiens, UniProt P36888)
T16 construct: purchased Millipore, Inc. (KinaseProfiler service)
Protocol: as §1

[18] = molecular target: T17, Fyn (Homo sapiens, UniProt P06241)
T17 construct: purchased Millipore, Inc. (KinaseProfiler service)
Protocol: as §1

[19] = molecular target: T18, GSK3alpha (Homo sapiens, UniProt P49840)
T18 construct: purchased Millipore, Inc. (KinaseProfiler service)
Protocol: as §1

[20] = molecular target: T19, IR Activated (Homo sapiens, UniProt P06213)
T19 construct: purchased Millipore, Inc. (KinaseProfiler service)
Protocol: as §1

[21] = molecular target: T20, IRAK1 (Homo sapiens, UniProt P51617)
T20 construct: purchased Millipore, Inc. (KinaseProfiler service)
Protocol: as §1

[22] = molecular target: T21, JNK1alpha1 (Homo sapiens, UniProt P45983)
T21 construct: purchased Millipore, Inc. (KinaseProfiler service)
T21 sequence (P45983 1-384 isoform P45983-2): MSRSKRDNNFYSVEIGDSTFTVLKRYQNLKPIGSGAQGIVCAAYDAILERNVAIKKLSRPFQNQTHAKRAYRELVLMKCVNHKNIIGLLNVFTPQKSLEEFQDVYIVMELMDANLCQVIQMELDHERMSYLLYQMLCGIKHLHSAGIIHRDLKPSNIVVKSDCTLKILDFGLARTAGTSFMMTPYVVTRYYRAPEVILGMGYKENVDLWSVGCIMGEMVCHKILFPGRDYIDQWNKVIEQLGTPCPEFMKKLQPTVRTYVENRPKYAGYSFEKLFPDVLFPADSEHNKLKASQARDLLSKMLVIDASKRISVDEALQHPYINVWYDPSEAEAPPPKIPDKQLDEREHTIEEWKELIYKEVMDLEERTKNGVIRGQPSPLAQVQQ
Protocol: as §1

[23] = molecular target: T22, Lyn (Homo sapiens, UniProt P07948)
T22 construct: purchased Millipore, Inc. (KinaseProfiler service)
T22 sequence (P07948 whole entry): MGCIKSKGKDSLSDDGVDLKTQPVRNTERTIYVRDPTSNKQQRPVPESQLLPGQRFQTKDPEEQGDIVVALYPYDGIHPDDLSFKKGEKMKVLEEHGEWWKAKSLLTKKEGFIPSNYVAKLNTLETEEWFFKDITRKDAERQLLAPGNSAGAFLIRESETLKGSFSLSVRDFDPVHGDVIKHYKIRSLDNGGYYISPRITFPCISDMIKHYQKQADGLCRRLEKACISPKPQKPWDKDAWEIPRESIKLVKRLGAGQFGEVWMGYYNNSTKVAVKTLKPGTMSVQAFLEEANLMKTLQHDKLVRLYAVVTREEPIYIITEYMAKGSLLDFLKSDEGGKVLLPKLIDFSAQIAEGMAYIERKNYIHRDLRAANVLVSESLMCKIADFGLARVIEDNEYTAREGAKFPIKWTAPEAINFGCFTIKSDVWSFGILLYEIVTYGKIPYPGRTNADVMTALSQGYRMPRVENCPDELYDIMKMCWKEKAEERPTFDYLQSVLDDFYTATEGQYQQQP
Protocol: as §1

[24] = molecular target: T23, MAPKAP-K5 (Homo sapiens, UniProt Q8IW41)
T23 construct: purchased Millipore, Inc. (KinaseProfiler service)
Protocol: as §1

[25] = molecular target: T24, MARK2 (Homo sapiens, UniProt Q7KZI7)
T24 construct: purchased Millipore, Inc. (KinaseProfiler service)
T24 sequence (Q7KZI7 whole entry): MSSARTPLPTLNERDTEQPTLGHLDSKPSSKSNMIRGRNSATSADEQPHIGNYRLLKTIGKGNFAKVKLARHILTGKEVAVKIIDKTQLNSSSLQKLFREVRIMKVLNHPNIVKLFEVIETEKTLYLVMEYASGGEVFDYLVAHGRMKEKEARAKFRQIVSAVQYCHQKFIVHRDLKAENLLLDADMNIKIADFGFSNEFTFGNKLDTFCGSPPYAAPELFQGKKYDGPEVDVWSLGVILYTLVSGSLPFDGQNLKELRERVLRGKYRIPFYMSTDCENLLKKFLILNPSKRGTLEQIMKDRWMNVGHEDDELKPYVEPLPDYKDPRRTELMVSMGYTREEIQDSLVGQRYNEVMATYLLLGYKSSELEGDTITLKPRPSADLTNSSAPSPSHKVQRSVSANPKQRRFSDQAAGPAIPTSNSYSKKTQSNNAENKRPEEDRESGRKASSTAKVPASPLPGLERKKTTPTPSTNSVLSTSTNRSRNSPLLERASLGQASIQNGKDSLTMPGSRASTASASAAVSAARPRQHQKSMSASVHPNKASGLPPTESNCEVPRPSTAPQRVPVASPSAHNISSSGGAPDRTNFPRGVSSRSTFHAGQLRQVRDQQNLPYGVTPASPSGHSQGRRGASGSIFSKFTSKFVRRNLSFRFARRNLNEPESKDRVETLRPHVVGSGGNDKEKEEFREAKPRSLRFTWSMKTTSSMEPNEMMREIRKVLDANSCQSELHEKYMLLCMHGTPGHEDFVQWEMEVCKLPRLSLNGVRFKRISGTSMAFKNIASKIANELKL
Protocol: as §1

[26] = molecular target: T25, MINK (Homo sapiens, UniProt Q8N4C8)
T25 construct: purchased Millipore, Inc. (KinaseProfiler service)
Protocol: as §1

[27] = molecular target: T26, MLK1 (Homo sapiens, UniProt P80192)
T26 construct: purchased Millipore, Inc. (KinaseProfiler service)
T26 sequence (P80192 whole entry): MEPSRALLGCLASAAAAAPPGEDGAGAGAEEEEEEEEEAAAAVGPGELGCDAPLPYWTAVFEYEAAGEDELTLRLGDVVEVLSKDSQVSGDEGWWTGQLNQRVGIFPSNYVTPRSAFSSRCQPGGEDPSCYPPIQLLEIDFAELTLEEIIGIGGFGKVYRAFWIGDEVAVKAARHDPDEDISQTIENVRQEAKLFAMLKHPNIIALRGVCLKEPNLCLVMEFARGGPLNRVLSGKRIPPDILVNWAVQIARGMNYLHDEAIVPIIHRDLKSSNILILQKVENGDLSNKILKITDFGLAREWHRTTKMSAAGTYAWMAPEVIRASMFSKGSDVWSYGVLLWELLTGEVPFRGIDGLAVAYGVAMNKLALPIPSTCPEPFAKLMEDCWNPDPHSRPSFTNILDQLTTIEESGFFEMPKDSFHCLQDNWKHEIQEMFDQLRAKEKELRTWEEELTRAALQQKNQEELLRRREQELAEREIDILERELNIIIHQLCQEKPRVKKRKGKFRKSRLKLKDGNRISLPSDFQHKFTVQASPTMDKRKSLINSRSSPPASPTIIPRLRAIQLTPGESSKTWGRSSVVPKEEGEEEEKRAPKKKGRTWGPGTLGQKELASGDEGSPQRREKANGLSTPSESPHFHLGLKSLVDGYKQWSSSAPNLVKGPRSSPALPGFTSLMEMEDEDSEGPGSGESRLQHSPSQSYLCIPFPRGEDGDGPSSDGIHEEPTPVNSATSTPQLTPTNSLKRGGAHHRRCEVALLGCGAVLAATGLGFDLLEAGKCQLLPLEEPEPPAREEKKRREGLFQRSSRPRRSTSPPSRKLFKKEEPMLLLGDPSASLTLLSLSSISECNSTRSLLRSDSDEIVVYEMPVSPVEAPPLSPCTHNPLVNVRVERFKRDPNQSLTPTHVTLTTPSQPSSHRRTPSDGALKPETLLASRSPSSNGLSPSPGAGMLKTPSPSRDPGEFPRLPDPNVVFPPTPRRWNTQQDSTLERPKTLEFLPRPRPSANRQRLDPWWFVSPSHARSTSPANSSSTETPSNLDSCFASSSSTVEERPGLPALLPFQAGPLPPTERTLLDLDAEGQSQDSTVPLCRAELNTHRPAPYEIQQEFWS
Protocol: as §1

[28] = molecular target: T27, MST1 (Homo sapiens, UniProt Q13043)
T27 construct: purchased Millipore, Inc. (KinaseProfiler service)
Protocol: as §1

[29] = molecular target: T28, Mer (Homo sapiens, UniProt Q12866)
T28 construct: purchased Millipore, Inc. (KinaseProfiler service)
Protocol: as §1

[30] = molecular target: T29, NEK6 (Homo sapiens, UniProt Q9HC98)
T29 construct: purchased Millipore, Inc. (KinaseProfiler service)
Protocol: as §1

[31] = molecular target: T30, NLK (Homo sapiens, UniProt Q9UBE8)
T30 construct: purchased Millipore, Inc. (KinaseProfiler service)
Protocol: as §1

[32] = molecular target: T31, PAK5 (Homo sapiens, UniProt Q9P286)
T31 construct: purchased Millipore, Inc. (KinaseProfiler service)
Protocol: as §1

[33] = molecular target: T32, PRK2 (Homo sapiens, UniProt Q16513)
T32 construct: purchased Millipore, Inc. (KinaseProfiler service)
Protocol: as §1

[34] = molecular target: T33, RIPK2 (Homo sapiens, UniProt O43353)
T33 construct: purchased Millipore, Inc. (KinaseProfiler service)
Protocol: as §1

[35] = molecular target: T34, Rse (Homo sapiens, UniProt Q06418)
T34 construct: purchased Millipore, Inc. (KinaseProfiler service)
Protocol: as §1

[36] = molecular target: T35, Rsk2 (Homo sapiens, UniProt P51812)
T35 construct: purchased Millipore, Inc. (KinaseProfiler service)
Protocol: as §1

[37] = molecular target: T36, SRPK2 (Homo sapiens, UniProt P78362)
T36 construct: purchased Millipore, Inc. (KinaseProfiler service)
Protocol: as §1

[38] = molecular target: T37, TAK1 (Homo sapiens, UniProt O43318)
T37 construct: purchased Millipore, Inc. (KinaseProfiler service)
Protocol: as §1

[39] = molecular target: T38, TSSK1 (Homo sapiens, UniProt Q9BXA7)
T38 construct: purchased Millipore, Inc. (KinaseProfiler service)
Protocol: as §1

[40] = molecular target: T39, TSSK2 (Homo sapiens, UniProt Q96PF2)
T39 construct: purchased Millipore, Inc. (KinaseProfiler service)
Protocol: as §1

[41] = molecular target: T40, mTOR/FKBP12 (Homo sapiens, UniProt P42345)
T40 construct: purchased Millipore, Inc. (KinaseProfiler service)
Protocol: as §1

Avg POC Abl2 [1]: 95 POC | Avg POC CAMK2g [2]: 101 POC | Avg POC CDK2/cyclinA [3]: 98.5 POC | Avg POC CDK5/p35 [4]: 97 POC | Avg POC CDK6/cyclinD3 [5]: 102 POC | Avg POC CK1_y [6]: 97 POC | Avg POC CLK2 [7]: 97.5 POC | Avg POC CLK3 [8]: 104.5 POC | Avg POC DAPK3 [9]: 93.5 POC | Avg POC DRAK1 [10]: 92.5 POC | Avg POC DYRK2 [11]: 92.5 POC | Avg POC EphB2 [12]: 103 POC | Avg POC FAK2 [13]: 96 POC | Avg POC FGFR1 [14]: 68 POC | Avg POC FGFR4 [15]: 118 POC | Avg POC Fes [16]: 90 POC | Avg POC Flt3 [17]: 54 POC | Avg POC Fyn [18]: 103 POC | Avg POC GSK3alpha [19]: 105 POC | Avg POC IR Activated [20]: 99 POC | Avg POC IRAK1 [21]: 101 POC | Avg POC JNK1alpha1 [22]: 98 POC | Avg POC Lyn [23]: 86 POC | Avg POC MAPKAP-K5 [24]: 92 POC | Avg POC MARK2 [25]: 98.5 POC | Avg POC MINK [26]: 139.5 POC | Avg POC MLK1 [27]: 100.5 POC | Avg POC MST1 [28]: 87.5 POC | Avg POC Mer [29]: 87.5 POC | Avg POC NEK6 [30]: 92.5 POC | Avg POC NLK [31]: 107 POC | Avg POC PAK5 [32]: 96.5 POC | Avg POC PRK2 [33]: 88.5 POC | Avg POC RIPK2 [34]: 99 POC | Avg POC Rse [35]: 103 POC | Avg POC Rsk2 [36]: 129.5 POC | Avg POC SRPK2 [37]: 114 POC | Avg POC TAK1 [38]: 86 POC | Avg POC TSSK1 [39]: 60 POC | Avg POC TSSK2 [40]: 90 POC | Avg POC mTOR/FKBP12 [41]: 97.5 POC
SMILES: COCc1ccc(C2CCC2)c(CNC(=O)Nc2c(C)c(-c3cnc(C)nc3)nn2-c2ccccc2)c1 [Example 10, 1-(2-cyclobutyl-5-(methoxymethyl)benzyl)-3-(4-methyl-3-(2-methylpyrimidin-5-yl)-1-phenyl-1H-pyrazol-5-yl)urea]

Avg POC Abl2 [1]: 139.5 POC | Avg POC CAMK2g [2]: 112 POC | Avg POC CDK2/cyclinA [3]: 103.5 POC | Avg POC CDK5/p35 [4]: 108.5 POC | Avg POC CDK6/cyclinD3 [5]: 108 POC | Avg POC CK1_y [6]: 97.5 POC | Avg POC CLK2 [7]: 131.5 POC | Avg POC CLK3 [8]: 102 POC | Avg POC DAPK3 [9]: 113 POC | Avg POC DRAK1 [10]: 141.5 POC | Avg POC DYRK2 [11]: 91.5 POC | Avg POC EphB2 [12]: 112.5 POC | Avg POC FAK2 [13]: 108 POC | Avg POC FGFR1 [14]: 96 POC | Avg POC FGFR4 [15]: 201.5 POC | Avg POC Fes [16]: 109 POC | Avg POC Flt3 [17]: 78.5 POC | Avg POC Fyn [18]: 113 POC | Avg POC GSK3alpha [19]: 161 POC | Avg POC IR Activated [20]: 103.5 POC | Avg POC IRAK1 [21]: 113 POC | Avg POC JNK1alpha1 [22]: 103 POC | Avg POC Lyn [23]: 104.5 POC | Avg POC MAPKAP-K5 [24]: 97.5 POC | Avg POC MARK2 [25]: 103.5 POC | Avg POC MINK [26]: 100 POC | Avg POC MLK1 [27]: 105.5 POC | Avg POC MST1 [28]: 87.5 POC | Avg POC Mer [29]: 96.5 POC | Avg POC NEK6 [30]: 115.5 POC | Avg POC NLK [31]: 121 POC | Avg POC PAK5 [32]: 144.5 POC | Avg POC PRK2 [33]: 106 POC | Avg POC RIPK2 [34]: 98.5 POC | Avg POC Rse [35]: 110 POC | Avg POC Rsk2 [36]: 146 POC | Avg POC SRPK2 [37]: 112 POC | Avg POC TAK1 [38]: 88.5 POC | Avg POC TSSK1 [39]: 80 POC | Avg POC TSSK2 [40]: 131 POC | Avg POC mTOR/FKBP12 [41]: 109.5 POC
SMILES: COCc1ccc(C(F)(F)F)c(CNC(=O)Nc2c(C)c(-c3cnn(C)c3)nn2-c2ccccc2)c1 [Example 33, 1-(1′,4-dimethyl-1-phenyl-1H,1′H-[3,4′-bipyrazol]-5-yl)-3-(5-(methoxymethyl)-2-(trifluoromethyl)benzyl)urea]
